Residues, ends and D or L forms follow the SMILES beside them. *: point of attachment. Cbz = O=C(OCc1ccccc1)*

For one series, the target named is T1, CD24 in HT29 cells (Homo sapiens, UniProt P25063).
T1 construct: endogenous in cells; host or cells: HT29 human colorectal cancer cells (ATCC)
T1 sequence (P25063 27-59 limits assumed): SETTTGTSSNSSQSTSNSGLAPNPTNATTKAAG
Put plainly: Western blot of CD24 degradation in mAb-treated cells. It is filed as cell-based. The following applies: up to 6 hours. On the procedure: FIGS. 5A and 5B are photos showing immunodetection on Western blot of CD24 degradation in anti-CD24 mAb treated cancer cells. HT29 (FIG. 5A) and Colo357 (FIG. 5B) cells were exposed to monoclonal anti-CD24 antibody SWA11 for the indicated periods of time, cells harvested and protein extracted. 20 μg of cell proteins from each sample were separated by SDS-PAGE, blotted onto membrane and reacted with anti-CD24 (SWA11 mAb, CD24) or polyclonal anti-actin (1-19, Santa Cruz Biotechnology, Santa Cruz Calif.). Visualization was effected by anti-mouse and anti-goat (respectively) second antibodies. Note the degradation of CD24 apparent already at 2 hours treatment in both cell lines, with no effect on actin levels;
FIG. 6 is a photo showing the lysosomal mediation of CD24 degradation in HT29 cancer cells treated with anti-CD24 mAb. […]
Exponentially growing cells were harvested and protein concentrations were determined using the Bio-Rad protein assay kit (Bio-Rad, Hercules, Calif.). […]
In order to assess whether CD24 proteolysis is involved in the inhibition of CD24-expressing cancer cell growth by anti-CD24 antibodies, protein levels of CD24 and housekeeping gene product actin in mAb-treated and control cells were analyzed by SDS-PAGE and Western blotting with specific antibodies.
On the technique in general: A western blot detects proteins with antibodies after separation by electrophoresis.

For another series, the system named is HT29 cells. Put plainly: Combined anti-CD24 mAb and chemotherapy, methylene-blue viability assay. Type of series: cell-based, human. The settings on record: simultaneous SWA11, 72 hours. How it is done:
Experiments were performed in duplicates or repeated twice. The Y axes stand for cell viability quantified via methylene-blue assay.
The killing effect of the anti-CD24 antibodies and the chemotherapies was assessed, in-vitro, using a methylene-blue assay: 2.5×10^3 cells/well were plated onto 96-well in 0.2 ml complete medium. On the morrow the media were refreshed with the addition of the indicated reagents, held in incubation for 72 hours. The cells were washed with PBS and then fixed with a 0.2 mL 4% formaldehyde solution for 2 hours at room temperature. The cells were then washed with PBS, incubated with 0.15 mL ribonuclease A (3 μg/mL) for 30 minutes at room temperature, equilibrated with 0.2 mL sodium borate (0.1M, pH 8.5), and stained with 0.2 mL methylene blue (0.5%) for 10 minutes at room temperature. Finally, the cells were thoroughly washed with tap water and cell-bound dye was eluted with 0.2 mL HCl (0.1M). Color intensity was read in an enzyme-linked immunosorbent assay plate reader at 595 nm. SWA11 served as the anti-CD24 antibody.

In series [1] the target is T2, human CD24 polypeptide (human) (UniProt P25063).
T2 sequence (looked up): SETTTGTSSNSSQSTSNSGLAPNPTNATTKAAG
Put plainly: cell-based or functional assay.

Series [2] concerns the target T2, human CD24 polypeptide (human). Put plainly: cell-based or functional assay. The source holds these as a separate data set.

Take `CC(C)C[C@@H](C=O)NC(=O)[C@H](CC(C)C)NC(=O)[C@H](CC(C)C)NC(=O)OCc1ccccc1` [MG132] (Cbz-Leu-Leu-Leu-aldehyde): the “effect on anti-CD24 mAb induced CD24 degradation” value at CD24 in HT29 cells (0.1 mM, proteasomal inhibitor, added prior to mAb) is “had no effect”.
Consider `COc1cccc2c1C(=O)c1c(O)c3c(c(O)c1C2=O)C[C@@](O)(C(=O)CO)C[C@@H]3O[C@H]1C[C@H](N)[C@H](O)[C@H](C)O1` [Doxorubicin], for which the “cytotoxic effect of chemotherapeutic agent when combined with SWA11” value in the series on HT29 cells is reported as “enhanced the cytotoxic effect”.
As to `CCN(CC)CCCC(C)Nc1ccnc2cc(Cl)ccc12` (centres unmarked) [chloroquine], the “effect on anti-CD24 mAb induced decrease in CD24 protein level” value on CD24 in HT29 cells (0.5 mM, lysosomal inhibitor, added 2 hours before mAb) is recorded as “prevented the decrease in CD24 protein level”.
For `CC(=O)O[C@H]1C(=O)[C@@]2(C)[C@H]([C@H](OC(=O)c3ccccc3)[C@]3(O)C[C@H](OC(=O)[C@H](O)[C@@H](NC(=O)c4ccccc4)c4ccccc4)C(C)=C1C3(C)C)[C@]1(OC(C)=O)CO[C@@H]1C[C@@H]2O` [Paclitaxel], the “cytotoxic effect of chemotherapeutic agent when combined with SWA11” value in the series on HT29 cells is recorded as “enhanced the cytotoxic effect”.
Still for that read-out and setting: the value for `O=c1[nH]cc(F)c(=O)[nH]1` [5-florouracil] was “enhanced the cytotoxic effect”; that for `O=C1[O][Pt]2([NH][C@@H]3CCCC[C@H]3[NH]2)[O]C1=O` [Oxaloplatin] was “enhanced the cytotoxic effect”.
The molecule SWA11-ZZ-PE38 immunoconjugate registered a cytotoxity (LD50) in series [1] of 32 ng/mL.

B1: SWA11 anti-CD24 monoclonal antibody (antibody, human IgG1, kappa, V domains shown)
V domain 1: SDVHLQESGPDLVKPSQSLSLTCTVTGYSITSGYTWHWIRQFPGNTVEWMGYIQYTGSTRYNPALRGRLSISRDTSKNQFFLQLISVTTADTGTYFCARGTTASFDYWGQGTTLTVAS
V domain 2: DIVMSQSPSSLNVSVGEKVTMRCRSSQSLLYSSDQKNYLTWYQQKPGQSPKLLISWASTRASGVPDRFTGSGSGTDFTLTISSVKAEDLGVYYCQQYFIYPLTFGVGTKLGLKR
Molecule B1 showed a growth inhibition (cell viability, methylene blue) in series [2] of less than 90%.

(Values after US8614301B2, “Methods of treating cancer using anti CD24 antibodies” (priority 2007, dated 2013).)
